In US20030162777A1, “Novel N-acylated heterocycles” (Recordati S.A., priority 2001, published 2003):
Where two headings read alike, the source gives them in different places.

Legend:
conscious rats = test: Effect on cystometric parameters in conscious rats after oral administration; format: in vivo, rat; conditions: 3 mg/kg p.o., 1-5 h after treatment, versus vehicle
Description: Male Sprague-Dawley rats [Crl: CD° (SD) BR] of 300-400 g supplied by Charles River Italia were used. The animals were housed with free access to food and water and maintained on a forced 12-hour-light/12-hour-dark cycle at 22-24° C. of temperature, except during the experiment. To quantify urodynamic parameters in conscious rats, cystometrographic studies were performed according to the procedure previously reported (Guarneri et al., Pharmacol. Res. 24: 175, 1991).
Briefly, the rats were anaesthetised by intraperitoneal administration of 3 ml/kg of Equithensin solution (pentobarbital 30 mg/kg and chloral hydrate 125 mg/kg) and placed in a supine position. An approximately-10-mm-long midline incision was made in the shaved and cleaned abdominal wall. The urinary bladder was gently freed from adhering tissues, emptied and then cannulated via an incision in the bladder body, using a polyethylene cannula (0.58-mm internal diameter, 0.96-mm external diameter) which was permanently sutured with silk thread. The cannula was exteriorised through a subcutaneous tunnel in the retroscapular area, where it was connected to a plastic adapter in order to avoid the risk of removal by the animal. For drug testing, the rats were utilised one day after implantation.
On the day of the experiment, the rats were placed in modified Bollman cages, i.e. restraining cages that were large enough to permit the rats to adopt a normal crouched posture, but narrow enough to prevent turning around. […] The intraluminal-pressure signal during infusion of saline into the bladder was continuously recorded on a polygraph (Rectigraph-8K San-ei with BM614/2 amplifier from Biomedica Mangoni) and, from the cystometrogram, two urodynamic parameters were evaluated: bladder volume capacity (BVC) and micturition pressure (MP). […] Basal BVC and MP values were evaluated as mean of the values observed in the cystometrograms recorded in an initial period of 30-60 minutes. […] The bladder infusion restarted and changes in BVC and MP were evaluated from the mean values obtained in the cystometrograms observed during 1, 2, 3, 4 and 5 hours after treatment. […]
All data were expressed as mean±standard error. Time-course data were analysed by S.A.S./STAT software, version 6.12. The difference between vehicle and active-treatment effect was evaluated by: General Linear Model Procedure—Repeated Measures Analysis of Variance: Univariate test of Hypotheses for within Subject Effects—Analysis of Variance of Contrast Variables. […]

anaesthetised rats = test: Effects on rhythmic bladder-voiding contractions induced by bladder filling in anaesthetised rats; format: in vivo, rat; conditions: for ED50: Rattus norvegicus
Description: Female Sprague-Dawley rats weighing 225-275 g (Crl: CDo Br, Charles River Italia) were used. The animals were housed with free access to food and water and maintained on a forced 12-hour alternating light-dark cycle at 22-24° C. for at least one week, except during the experiment. The activity on rhythmic bladder voiding contractions was evaluated according to the method of Dray (Dray J., Pharmacol. Methods, 13:157, 1985), with some modifications as in Guarneri (Guarneri, Pharmacol. Res. 27:173, 1993). Briefly, the rats were anaesthetised by subcutaneous injection of 1.25 g/kg (5 ml/kg) urethane, after which the urinary bladder was catheterised via the urethra using PE 50 polyethylene tubing filled with physiological saline. The catheter was tied in place with a ligature around the external urethral orifice and was connected to conventional pressure transducers (Statham P23 ID/P23 XL). […] The bladder was then filled via the recording catheter by incremental volumes of warm (37° C.) saline until reflex bladder-voiding contractions occurred (usually 0.8-1.5 ml). For intravenous injection of bioactive compounds, PE 50 polyethylene tubing filled with physiological saline was inserted into the jugular vein.
From the cystometrogram, the number of contractions recorded 15 minutes before (basal values) and after treatment, as well as the mean amplitude of these contractions (mean height of the peaks in mmHg), was evaluated.
Since most compounds produced an effect that was relatively rapid in onset and led to a complete cessation of bladder contractions, bioactivity was conveniently estimated by measuring the duration of bladder quiescence (i.e. the length of the time during which no contractions occurred). The number of tested animals showing a reduction in the number of contractions higher than 30% of that observed in the basal period was recorded too.
The extrapolated doses which induced a reduction in the number of contractions greater than 30% in 50% of the treated rats (ED50) were evaluated by the method of Bliss (Bliss C. I., Quart J. Pharm. Pharmacol. 11, 192-216, 1938).

## CCN(CC)CC#CCOC(=O)C(O)(c1ccccc1)C1CCCCC1 (stereo not drawn) [Oxybutynin, oxybutynin, reference compound]
Conscious rats
  effect on bladder volume capacity (BVC): slight, not-significant increase
  effect on micturition pressure (MP): greatly reduced
Anaesthetised rats; intravenous administration, urethane-anaesthetised rats, read-out: ED50 frequency (extrapolated dose inducing a reduction of the number of contractions >30% in 50% of treated rats)
  ED50: > 10 mg/kg
Anaesthetised rats; intravenous administration, n.a. = not active, no significant reduction of the height of the peaks, read-out: ED50 amplitude (extrapolated dose inducing a 30% reduction of amplitude of the contractions in 50% of treated rats)
  ED50: 0.24 mg/kg
Anaesthetised rats; intravenous administration, urethane-anaesthetised rats
  ED10 min (extrapolated dose inducing 10 minutes of disappearance of the contractions): 7.77 mg/kg
Anaesthetised rats; intravenous, anaesthetised rats
  cessation of bladder contractions (in words): does not cause cessation of bladder contractions
